From ChEMBL document CHEMBL3352323, “Lead optimization of a pyrazole sulfonamide series of Trypanosoma brucei N-myristoyltransferase inhibitors: identification and evaluation of CNS penetrant compounds as potential treatments for stage 2 human African trypanosomiasis” (J Med Chem, 2014)
Active and inactive are the calls of the source. The rule behind the calls is not given here.

Legend:
Trypanosoma brucei = assay: microbe, parasite or virus in culture; conditions: BSF427, 69 h
Description: Antitrypanosomal activity against Trypanosoma brucei BSF427 expressing VSG118 infected in human MRC5 cells assessed as reduction cell viability incubated for 69 hrs by rezasurin dye based assay

MRC5 = assay: cells; conditions: Homo sapiens, MRC5, 69 h
Description: Antiproliferative activity against human MRC5 cells assessed as reduction cell viability incubated for 69 hrs by rezasurin dye based assay

[1] = Inhibition of Trypanosoma brucei N-myristoyltransferase assessed as transfer of [3H]-myristic acid to a biotinylated substrate peptide (GCGGSKVKPQPPQAK(biotin)-amide by scintillation proximity assay
[2] = tested on: Trypanosoma brucei brucei; assay: Trypanocidal activity against bloodstream form of Trypanosoma brucei beucei GVR35 infected in NMRI mouse stage 2 human African trypanosomiasis model at 150 mg/kg, po bid for 5 days; format: functional, organism-based; design: dose 150 mg/kg
Mus musculus [3] = assay: Toxicity in bloodstream form of Trypanosoma brucei beucei GVR35 infected NMRI mouse stage 2 human African trypanosomiasis model at 100 mg/kg, po bid for 5 days; format: organism-based; design: dose 100 mg/kg, route oral; conditions: in vivo, 120 h
[4] = molecular target: Voltage-gated inwardly rectifying potassium channel KCNH2 (Homo sapiens, UniProt Q12809); assay: Inhibition of human ERG
Chain of Voltage-gated inwardly rectifying potassium channel KCNH2 (Q12809 whole entry): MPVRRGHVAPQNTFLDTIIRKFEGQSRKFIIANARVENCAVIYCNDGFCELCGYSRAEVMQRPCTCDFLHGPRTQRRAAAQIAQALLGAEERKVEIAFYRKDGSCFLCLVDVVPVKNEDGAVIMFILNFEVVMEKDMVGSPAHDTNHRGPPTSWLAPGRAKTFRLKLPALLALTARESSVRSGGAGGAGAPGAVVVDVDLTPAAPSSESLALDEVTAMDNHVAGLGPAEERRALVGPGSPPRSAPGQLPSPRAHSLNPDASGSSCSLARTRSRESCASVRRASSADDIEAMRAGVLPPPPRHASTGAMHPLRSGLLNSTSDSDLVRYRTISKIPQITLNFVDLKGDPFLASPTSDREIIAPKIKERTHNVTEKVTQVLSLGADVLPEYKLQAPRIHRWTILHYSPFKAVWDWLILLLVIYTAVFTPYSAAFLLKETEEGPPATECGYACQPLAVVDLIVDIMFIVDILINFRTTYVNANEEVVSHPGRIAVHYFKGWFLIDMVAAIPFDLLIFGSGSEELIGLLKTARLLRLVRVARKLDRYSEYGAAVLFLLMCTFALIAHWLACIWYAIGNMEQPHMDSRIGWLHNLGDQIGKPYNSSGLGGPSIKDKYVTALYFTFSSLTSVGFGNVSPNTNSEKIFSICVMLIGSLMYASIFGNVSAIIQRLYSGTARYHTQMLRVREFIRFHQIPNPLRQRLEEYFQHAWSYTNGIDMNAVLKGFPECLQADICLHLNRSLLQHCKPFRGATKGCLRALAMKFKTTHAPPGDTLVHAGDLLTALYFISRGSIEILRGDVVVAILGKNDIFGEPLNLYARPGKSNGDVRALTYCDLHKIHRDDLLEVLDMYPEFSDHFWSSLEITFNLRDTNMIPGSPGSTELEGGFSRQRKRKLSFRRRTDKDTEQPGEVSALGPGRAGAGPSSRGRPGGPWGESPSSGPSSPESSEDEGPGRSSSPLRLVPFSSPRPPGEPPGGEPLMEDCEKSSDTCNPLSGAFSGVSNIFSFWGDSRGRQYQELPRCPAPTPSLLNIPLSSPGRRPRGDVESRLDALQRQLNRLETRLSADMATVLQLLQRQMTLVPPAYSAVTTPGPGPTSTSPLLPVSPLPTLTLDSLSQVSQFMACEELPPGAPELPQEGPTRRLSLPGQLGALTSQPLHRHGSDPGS

Mus musculus [5] = assay: (§1) Maximum tolerated dose in orally twice daily dosed mouse; format: ADME, organism-based; conditions: in vivo, po
[6] = tested on: Trypanosoma brucei brucei; assay: Trypanocidal activity against bloodstream form of Trypanosoma brucei beucei GVR35 infected in NMRI mouse stage 2 human African trypanosomiasis model at 100 mg/kg, po bid for 8 days followed by three rounds of 3 day dosing at 100 mg/kg with two day drug holiday between rounds; format: functional, organism-based
[7] = Selectivity index, IC50 for human N-myristoyltransferase to EC50 for Trypanosoma brucei; format: functional
[8] = molecular target: T1, Glycylpeptide N-tetradecanoyltransferase 1 (Homo sapiens, UniProt P30419); assay: Inhibition of human N-myristoyltransferase 1 assessed as transfer of [3H]-myristic acid to a biotinylated substrate peptide (GCGGSKVKPQPPQAK(biotin)-amide by scintillation proximity assay
T1 sequence (P30419 whole entry): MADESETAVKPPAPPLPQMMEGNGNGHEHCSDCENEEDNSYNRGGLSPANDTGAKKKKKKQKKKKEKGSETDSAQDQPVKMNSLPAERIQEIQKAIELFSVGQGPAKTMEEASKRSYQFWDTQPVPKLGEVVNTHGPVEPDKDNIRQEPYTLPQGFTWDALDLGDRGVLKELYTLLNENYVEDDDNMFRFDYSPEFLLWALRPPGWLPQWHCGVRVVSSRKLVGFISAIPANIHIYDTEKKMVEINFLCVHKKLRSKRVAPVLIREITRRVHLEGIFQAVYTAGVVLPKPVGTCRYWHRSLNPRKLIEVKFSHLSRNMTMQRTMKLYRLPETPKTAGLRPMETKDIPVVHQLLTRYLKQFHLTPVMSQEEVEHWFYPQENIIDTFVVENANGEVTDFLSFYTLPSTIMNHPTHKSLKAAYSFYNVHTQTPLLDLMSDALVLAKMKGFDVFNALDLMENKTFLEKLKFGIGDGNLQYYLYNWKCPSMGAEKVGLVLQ

Mus musculus [9] = assay: Toxicity in bloodstream form of Trypanosoma brucei beucei GVR35 infected NMRI mouse stage 2 human African trypanosomiasis model at 50 mg/kg, po bid for 8 days; format: organism-based; design: dose 50 mg/kg, route oral; conditions: in vivo, 192 h
[10] = tested on: Trypanosoma brucei brucei; assay: Trypanocidal activity against bloodstream form of Trypanosoma brucei beucei GVR35 infected in NMRI mouse stage 2 human African trypanosomiasis model at 50 mg/kg, po bid for 8 days; format: functional, organism-based; design: dose 50 mg/kg
[11] = tested on: Trypanosoma brucei brucei; assay: Trypanocidal activity against Trypanosoma brucei beucei GVR35 infected in NMRI mouse acute model dosed twice daily orally for 4 days; format: functional
[12] = tested on: Trypanosoma brucei brucei; assay: Trypanocidal activity against Trypanosoma brucei beucei S427 infected in NMRI mouse acute model dosed twice daily orally for 4 days; format: functional
[13] = tested on: Trypanosoma brucei brucei; assay: Trypanocidal activity against bloodstream form of Trypanosoma brucei beucei GVR35 infected in NMRI mouse stage 2 human African trypanosomiasis model at 25 mg/kg, po bid for 10 days; format: functional, organism-based; design: dose 25 mg/kg
Mus musculus [14] = assay: Toxicity in bloodstream form of Trypanosoma brucei beucei GVR35 infected NMRI mouse stage 2 human African trypanosomiasis model at 50 mg/kg, po bid for 5 days; format: organism-based; design: dose 50 mg/kg, route oral; conditions: in vivo, 120 h
Mus musculus [15] = assay: Toxicity in bloodstream form of Trypanosoma brucei beucei GVR35 infected NMRI mouse stage 2 human African trypanosomiasis model at 150 mg/kg, po bid for 5 days; format: organism-based; design: dose 150 mg/kg, route oral; conditions: in vivo, 120 h
[16] = as §1; format: ADME, organism-based; conditions: in vivo, po
Mus musculus [17] = assay: AUC (0 to 8 hrs) in NMRI mouse at 10 mg/kg, po by UPLC-MS/MS method; format: ADME, organism-based, Plasma; design: time < 8 hr, dose 10 mg/kg, route oral; conditions: in vivo
Mus musculus [18] = assay: Oral bioavailability in NMRI mouse at 10 mg/kg by UPLC-MS/MS method; format: ADME, organism-based; conditions: in vivo
[19] = tested on: Trypanosoma brucei rhodesiense; assay: Trypanocidal activity against bloodstream form of Trypanosoma brucei rhodesiense STIB900 infected in twice daily po dosed mouse; format: functional
[20] = tested on: Trypanosoma brucei brucei; assay: Trypanocidal activity against bloodstream form of Trypanosoma brucei brucei S427 infected in mouse stage 1 HAT model at […], po bid for 4 days; format: functional, organism-based
[21] = Plasma protein binding in mouse; format: ADME, organism-based; conditions: read-out: PPB (converted)
[22] = tested on: Trypanosoma brucei rhodesiense; assay: Trypanocidal activity against bloodstream form of Trypanosoma brucei rhodesiense STIB900 infected in mouse stage 1 HAT model at 50 mg/kg, po bid for 4 days; format: functional, organism-based; design: dose 50 mg/kg
[23] = Ratio of drug level in brain to blood in mdr1a-deficient mouse; format: ADME, organism-based; conditions: brain and blood, read-out: BBR
[24] = Ratio of drug level in brain to blood in wild type NMRI mouse at 2 mg free base/kg, iv by UPLC-MS/MS method; format: ADME, organism-based; conditions: brain and blood, read-out: BBR

Row | SMILES | EC50 (Trypanosoma brucei) [nM] | EC50 (MRC5) [nM] | IC50 [1] [nM] | further results
1 | Cn1cc(NS(=O)(=O)c2c(Cl)cc(-c3ccnc(N4CCNCC4)c3)cc2Cl)cn1 | 370 | 10300 |  | 
2 | Cc1c(NS(=O)(=O)c2c(Cl)cc(-c3ccnc(N4CCNCC4)c3)cc2Cl)cnn1C | 24 | 1230 |  | 
3 | Cc1nn(C)c(C)c1NS(=O)(=O)c1ccc(CCCC2CCN(C)CC2)cc1 | 30 | 18700 | 7 | 
4 | Cc1nn(C)c(C)c1NS(=O)(=O)c1c(Cl)cc(C#Cc2cncn2C)cc1Cl | 3900 | 16600 | 660 | 
5 | Cc1nn(C)c(C)c1NS(=O)(=O)c1c(Cl)cc(CCCC2CCN(C)CC2)cc1Cl | 2 | 2200 | 2 | 
6 | Cc1nn(C)c(C)c1N(CC(F)(F)F)S(=O)(=O)c1c(Cl)cc(CCCC2CCN(C)CC2)cc1Cl |  |  |  | inhibition [2]: inactive
7 | Cc1nn(C)c(C)c1N(C(F)F)S(=O)(=O)c1c(Cl)cc(CCCOC[C@H]2CCCCN2C)cc1Cl |  | 3500 | 2 | 
8 | Cc1nn(C)c(C)c1N(C(F)F)S(=O)(=O)c1c(Cl)cc(CCCC2CCN(C)CC2)cc1Cl |  |  |  | Activity (Mus musculus [3]): Toxic; IC50 [4]: 600 nM; MTD (Mus musculus [5]): 100 mg/kg; inhibition [6]: Active
9 | Cc1nn(C)c(C)c1NS(=O)(=O)c1c(Cl)cc(CCCC2CCNCC2)cc1Cl | 2 | 2500 | 2 | 
10 | Cc1nn(C)c(C)c1NS(=O)(=O)c1ccc(CCCCC2CCNCC2)cc1 | 9 | 5300 | 6 | 
11 | Cc1nn(C)c(C)c1NS(=O)(=O)c1c(Cl)cc(C#CCN2CCN(C)CC2)cc1Cl | 660 | > 50000 | 160 | Selectivity Index [7]: 7; IC50 [8]: 4600 nM
12 | Cc1nn(C)c(CC(C)C)c1NS(=O)(=O)c1c(Cl)cc(-c2ccnc(N3CCNCC3)c2)cc1Cl | 5 | 640 | 6 | 
13 | Cc1nn(C)c(C)c1NS(=O)(=O)c1c(Cl)cc(CCCCC2CCNCC2)cc1Cl | 0.6 | 370 | 3 | 
14 | Cc1nn(C)c(C)c1N(C(F)F)S(=O)(=O)c1c(Cl)cc(CCCOC[C@@H]2CCCCN2C)cc1Cl |  | 3900 | 2 | 
15 | Cc1nn(C)c(C)c1N(C(F)F)S(=O)(=O)c1c(Cl)cc(CCCOC[C@@H]2CCCN2C)cc1Cl |  | 2800 | 2 | 
16 | Cc1nn(C)c(C)c1N(C(F)F)S(=O)(=O)c1c(Cl)cc(CCCOC[C@H]2CCCN2C)cc1Cl |  | 3200 | 2 | 
17 | Cc1nn(C)c(C)c1NS(=O)(=O)c1ccc(CCCN2CCN(C)CC2)cc1 | 750 | > 50000 | 120 | Selectivity Index [7]: 4.7; IC50 [8]: 3500 nM
18 | Cc1nn(C)c(C)c1NS(=O)(=O)c1c(Cl)cc(CCCN2CCN(C)CC2)cc1Cl |  | 31400 | 3 | 
19 | Cc1nn(C)c(C)c1N(C(F)F)S(=O)(=O)c1c(Cl)cc(CCCCC2CCN(C)CC2)cc1Cl |  |  |  | Activity (Mus musculus [9]): Toxic; inhibition [10]: inactive; MCD [11]: 25 mg/kg; MCD [12]: 6 mg/kg; inhibition [13]: inactive; MTD (Mus musculus [5]): 50 mg/kg; Activity (Mus musculus [14]): Toxic
20 | Cc1nn(C)c(C)c1N(CC(F)(F)F)[S+](=O)([O-])c1c(Cl)cc(CCCC2CCN(C)CC2)cc1Cl |  |  |  | Activity (Mus musculus [15]): Non-toxic; MTD [16]: 150 mg/kg
21 | Cc1nn(C)c(C)c1N(C(F)F)S(=O)(=O)c1c(Cl)cc(CCCN2CCN3CCC[C@@H]3C2)cc1Cl |  | 3100 | 2 | 
22 | Cc1nn(C)c(C)c1NS(=O)(=O)c1ccc(CCCCC2CCN(C)CC2)cc1 | 16 | 3600 | 3 | 
23 | Cc1c(NS(=O)(=O)c2c(Cl)cc(-c3ccnc(N4CCNCC4)c3)cc2Cl)c(CC(C)C)nn1C [ZELENIRSTAT] |  |  |  | AUC (Mus musculus [17]): 3400 µg/min/mL; F (Mus musculus [18]): 93%; MCD [19]: 6 mg/kg
24 | Cc1nn(C)c(C)c1NS(=O)(=O)c1c(Cl)cc(-c2ccnc(N3CCNCC3)c2)cc1Cl |  |  |  | Activity [20]: Active; AUC (Mus musculus [17]): 392 µg/min/mL; fraction unbound [21]: 0.06; F (Mus musculus [18]): 20%; MCD [19]: 50 mg/kg; Activity [22]: Active
25 | Cc1nn(C)c(C)c1N(C)S(=O)(=O)c1c(Cl)cc(Br)cc1Cl | 5100 | 27200 | 330 | Kp [23]: 3.7; IC50 [8]: 3580 nM; Kp [24]: 3.7
26 | Cc1nn(C)c(C)c1NS(=O)(=O)c1c(Cl)cc(CCCCC2CCN(C)CC2)cc1Cl | 0.5 | 180 | 1 | 
27 | Cc1nn(C)cc1NS(=O)(=O)c1c(Cl)cc(-c2ccnc(N3CCNCC3)c2)cc1Cl | 2 | 250 | 4 | 
28 | Cc1nn(C)c(C)c1NS(=O)(=O)c1c(Cl)cc(Br)cc1Cl | 16000 | > 50000 | 500 | Kp [23]: < 0.1; IC50 [8]: 7300 nM; Kp [24]: < 0.1
29 | Cc1nn(C)c(C)c1NS(=O)(=O)c1ccc(CCCC2CCNCC2)cc1 | 110 | > 50000 | 9 | 
